Reference: PMC9228872, “Repositioning of Quinazolinedione-Based Compounds on Soluble Epoxide Hydrolase (sEH) through 3D Structure-Based Pharmacophore Model-Driven Investigation” (Molecules, 2022)

Assays:
[1] = biological target: T1, soluble epoxide hydrolase (sEH) (Homo sapiens, UniProt P34913); experiment: cell-free fluorescence assay with PHOME substrate, single concentration […]; format: biochemical; settings: read-out: sEH Residual Activity (%)
T1 construct: gene EPHX2; human recombinant sEH; C-terminal hydrolase domain activity measured
T1 sequence (P34913 1-555): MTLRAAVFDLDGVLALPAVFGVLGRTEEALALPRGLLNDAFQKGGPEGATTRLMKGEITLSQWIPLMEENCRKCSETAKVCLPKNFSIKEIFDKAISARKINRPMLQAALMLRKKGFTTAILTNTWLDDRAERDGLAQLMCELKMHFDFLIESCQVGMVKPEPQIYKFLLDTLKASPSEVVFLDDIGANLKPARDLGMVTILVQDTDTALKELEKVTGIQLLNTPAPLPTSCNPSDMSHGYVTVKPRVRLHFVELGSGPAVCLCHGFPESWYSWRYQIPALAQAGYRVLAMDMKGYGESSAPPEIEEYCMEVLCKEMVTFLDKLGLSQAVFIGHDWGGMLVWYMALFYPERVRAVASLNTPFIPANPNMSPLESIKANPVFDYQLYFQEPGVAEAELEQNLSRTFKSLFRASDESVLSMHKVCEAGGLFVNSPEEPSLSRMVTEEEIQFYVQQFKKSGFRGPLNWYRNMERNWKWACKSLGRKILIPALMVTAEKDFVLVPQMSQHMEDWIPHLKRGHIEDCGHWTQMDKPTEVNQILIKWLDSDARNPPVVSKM

[2] = biological target: T1, soluble epoxide hydrolase (sEH); experiment: cell-free fluorescence assay with PHOME substrate, concentration-response; format: biochemical

IC50 [2]	Structure (SMILES)	remaining activity at 10 µM [1]
–	O=C(CCCCCn1c(=O)[nH]c2ccccc2c1=O)Nc1ccc2ncsc2c1 [compound 8, N-(benzo[d]thiazol-6-yl)-6-(2,4-dioxo-1,2-dihydroquinazolin-3(4H)-yl)hexanamide]	51.7 ± 3.3%
–	O=C(CCCCCn1c(=O)[nH]c2ccccc2c1=O)Nc1ccc(I)nc1 [compound 7, 6-(2,4-dioxo-1,2-dihydroquinazolin-3(4H)-yl)-N-(6-iodopyridin-3-yl)hexanamide]	67.2 ± 4.4%
–	O=C(CCCCCCn1c(=O)[nH]c2ccccc2c1=O)Nc1cncc(Br)c1 [compound 6, N-(5-bromopyridin-3-yl)-7-(2,4-dioxo-1,2-dihydroquinazolin-3(4H)-yl)heptanamide]	48.6 ± 3.8%
8.8 ± 1.5 µM	O=C(CCCCn1c(=O)[nH]c2ccccc2c1=O)Nc1ccc2c(c1)OCCO2 [compound 3, N-(2,3-dihydrobenzo[b][1,4]dioxin-6-yl)-5-(2,4-dioxo-1,2dihydroquinazolin-3(4H)yl)pentanamide]	–
4.5 ± 1 µM	O=C(CCCCCn1c(=O)[nH]c2ccccc2c1=O)Nc1ccc2c(c1)OCCO2 [compound 4, N-(2,3-dihydrobenzo[b][1,4]dioxin-6-yl)-6-(2,4-dioxo-1,2-dihydroquinazolin-3(4H)-yl)hexanamide]	–
